According to patent publication US11654138B2, “Therapeutic agents for treating and preventing autoimmune diseases and cancer and a screening method” (KING FAISAL UNIVERSITY, priority 2019, dated 2023):

Columns and labels:
peritoneal macrophages = experiment: Cytokine secretion by LPS-stimulated peritoneal macrophages; format: cell-based, mice; conditions: 40 μM, LPS 0.5 μg/mL 24 h, compared to LPS alone
Description: (§1) The peritoneal macrophages were stimulated in vitro with 0.5 μg/mL lipopolysaccharides (LPS) (Sigma-Aldrich) for 24 h. The CD4^+ CD62L^+ T cells were isolated and purified from spleen using the MACS isolation kit (Miltenyi). The T cells were cultured in the presence of anti-CD3/CD28 dynabeads (Invitrogen), recombinant mouse IL-6 (30 ng/mL; R&D Systems), recombinant transforming growth factor-β (TGF-β) (4 ng/mL; R&D Systems), anti-interferon-γ (IFN-γ) and anti-IL-4 (10 μg/mL; Biolegend) for 72 h to generate Th17 cells.
The mRNAs and cytokines were quantified as follows. A first strand of cDNA was synthesized from total RNA by using the TaqMan reverse transcription kit. […] The relative expression of mRNAs was calculated by ΔΔCt method. For cytokines quantification in serum and cell culture supernatants, ELISA kits of IL-17a, IL-6, TNF-α (Invitrogen) were used following the manufacturer's instructions.
The anti-inflammatory activity of the Arid5a inhibitor POE was tested in vitro by measuring secretion of pro-inflammatory cytokines by macrophages and differentiated Th17 cells. […] The percentage of CD4^+OX40^+ T cells in the polarized Th17 cells was determined using flow cytometry; the results are shown in FIG. 3D. […]

CIA = experiment: Collagen-induced arthritis (CIA) model; format: in vivo, C57BL mice
[1] = tested on: differentiated Th17 cells; experiment: Th17 differentiation of naïve CD4+CD62L+ T cells; format: cell-based, mice; conditions: 40 μM, 72 h
Description: as §1
The mRNAs and cytokines were quantified as follows. A first strand of cDNA was synthesized from total RNA by using the TaqMan reverse transcription kit. The cDNA was amplified in the real-time PCR system ViiA7 using TaqMan gene expression assays of OX40 (Mm01261022_m1), Stat3 (Mm01219775_m1) and the endogenous control Gapdh (Mm99999915_g1). Kits, probes and reagents were from Applied Biosystems. The relative expression of mRNAs was calculated by ΔΔCt method. For cytokines quantification in serum and cell culture supernatants, ELISA kits of IL-17a, IL-6, TNF-α (Invitrogen) were used following the manufacturer's instructions.
Flow cytometry analysis was conducted using CD4^+ T cells cultured under Th17 cell-inducing conditions or CD4^+ T cells derived from CNS, which were fixed and stained with Per-CP-Cy5.5-conjugated anti-CD4 antibodies and PE-conjugated anti-OX40 antibodies (Biolegend). Analysis was carried out using Flowsight (Amnis).
The anti-inflammatory activity of the Arid5a inhibitor POE was tested in vitro by measuring secretion of pro-inflammatory cytokines by macrophages and differentiated Th17 cells. Briefly, peritoneal macrophages were stimulated with LPS (0.5 μg/mL) for 24 h in presence or absence of POE (40 μM). […] The percentage of CD4^+OX40^+ T cells in the polarized Th17 cells was determined using flow cytometry; the results are shown in FIG. 3D. Stat3 mRNA expression in the polarized Th17 cells was quantified by real-time PCR and normalized to Gapdh mRNA; the results are shown relative to those of untreated Th17 cells in FIG. 3E.

Pocket X-mutant Arid5a = molecular target: T1, Pocket X-mutant Arid5a (Mus musculus, UniProt Q3U108, F56C/L84A/V134A/Y137A); experiment: Luciferase assay on Pocket X-mutant Arid5a (Phe56, Leu84, Val134, Tyr137 substitutions); format: cell-based; conditions: 40 μM
T1 construct: Flag; expressed in transfected cells; host or cells: HEK293T
T1 sequence (Q3U108 1-590 F56C/L84A/V134A/Y137A): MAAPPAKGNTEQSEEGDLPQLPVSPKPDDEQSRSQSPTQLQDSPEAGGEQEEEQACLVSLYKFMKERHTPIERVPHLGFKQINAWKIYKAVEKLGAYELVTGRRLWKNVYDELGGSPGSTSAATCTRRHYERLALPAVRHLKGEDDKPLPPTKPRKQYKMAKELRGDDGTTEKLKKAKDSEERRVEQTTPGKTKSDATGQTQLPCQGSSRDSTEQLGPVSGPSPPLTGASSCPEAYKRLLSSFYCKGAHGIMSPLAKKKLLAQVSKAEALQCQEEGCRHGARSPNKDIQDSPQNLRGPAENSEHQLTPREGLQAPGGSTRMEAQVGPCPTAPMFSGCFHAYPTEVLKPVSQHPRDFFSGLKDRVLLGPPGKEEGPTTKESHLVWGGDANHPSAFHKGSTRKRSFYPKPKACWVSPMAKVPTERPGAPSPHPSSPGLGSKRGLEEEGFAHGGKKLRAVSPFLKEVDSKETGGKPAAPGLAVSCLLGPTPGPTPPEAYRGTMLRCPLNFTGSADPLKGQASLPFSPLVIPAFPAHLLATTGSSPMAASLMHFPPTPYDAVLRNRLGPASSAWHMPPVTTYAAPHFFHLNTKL
Source text: Briefly, HEK293T cells were transfected with luciferase pGL-3 and empty pcDNA3.1 plasmids (Control), or pGL-3 plasmid encoding the 3′UTR of OX40, Il6 or Stat3, together with Arid5a-expressing pcDNA3.1 plasmid. Substitution mutations were introduced to the wild-type (WT) Arid5a at Phe56, Leu84, Val134 and Tyr137. Single point mutations were used to substitute Phe56 (TTC) with Cys (TGC) and Val134 (GTC) with Ala (GCC). Sequential point mutations were used to substitute Leu84 (CTG) with Ala (GCG) and Tyr137 (TAT) with Ala (GCT). Luciferase activity from cell lysates is shown relative to Control in FIGS. 2A-2C.

EAE = experiment: Experimental autoimmune encephalomyelitis (EAE) model of multiple sclerosis; format: in vivo, C57BL/6 female mice
[2] = 0.5 mg i.p., day 24, vs corn oil, FIG. 5B

## O=C(CSc1nnc(-c2ccncc2)o1)c1ccccc1 [POE, 1-Phenyl-2-(5-pyridin-4-yl-[1,3,4]oxadiazol-2-ylsulfanyl)-ethanone]
Peritoneal macrophages; FIG. 3A
  Level of IL-6 in cell culture supernatant: reduces the level of IL-6
Peritoneal macrophages; FIG. 3B
  Level of TNF-α in cell culture supernatant: does not affect the level of TNF-α
CIA; 0.25 mg i.p. on days 0, 3, 6, 9, 12, 15, 18, vs corn oil, FIG. 7A
  CIA clinical scores: comparably reduced CIA clinical scores
CIA; 0.25 mg i.p., day 45, FIG. 7B
  Serum level of IL-6: reduced serum levels of IL-6
CIA; 0.25 mg i.p., day 45, flow cytometry, FIG. 7C
  Frequency of CD4+IL-17+ cells in the secondary lymphoid organs: reduced the frequency of CD4^+IL-17^+ cells
[1]; compared to untreated Th17 cells, FIG. 3C
  Level of IL-17 in cell culture supernatant of polarized Th17 cells: reduces the level of IL-17
[1]; flow cytometry, FIG. 3D
  Frequency of CD4+OX40+ T cells in polarized Th17 cells: reduces the frequency of CD4^+OX40^+ T cells
[1]; real-time PCR normalized to Gapdh, FIG. 3E
  Expression of Stat3 mRNA in polarized Th17 cells: reduces the expression of Stat3 mRNA
Pocket X-mutant Arid5a; mutations at Phe56, Leu84, Val134, Tyr137, FIG. 2A
  Inhibitory effect on stabilizing function of mutant Arid5a on OX40 3′UTR: abolish the inhibitory effects of POE
Pocket X-mutant Arid5a; mutations at Phe56, Leu84, Val134, Tyr137, FIG. 2B
  Inhibitory effect on stabilizing function of mutant Arid5a on Il6 3′UTR: abolish the inhibitory effects of POE
Pocket X-mutant Arid5a; mutations at Phe56, Leu84, Val134, Tyr137, FIG. 2C
  Inhibitory effect on stabilizing function of mutant Arid5a on Stat3 3′UTR: abolish the inhibitory effects of POE
EAE; 0.5 mg i.p. per day, days 0-3, vs corn oil, FIG. 5A
  EAE clinical scores: reduces EAE clinical scores
EAE; [2]
  Serum level of IL-6: reduces serum levels of IL-6 and TNF-α
  Serum level of TNF-α: reduces serum levels of IL-6 and TNF-α
EAE; 10 days after disease induction, FIG. 5D
  Expression of OX40 mRNA in CD4+ T cells isolated from the CNS: reduces the expression of OX40 mRNA
EAE; 10 days after disease induction, flow cytometry, FIG. 5E
  Frequency of CD4+OX40+ T cells in the CNS: reduces the frequency of CD4^+OX40^+ T cells
EAE; lymph node cells restimulated with MOG35-55 and IL-23 72 h, FIG. 5C
  Level of IL-17 in culture supernatant of encephalitogenic CD4+ T cells on restimulation: reduces the level of IL-17
